Earlier results in article PMC5131319, “Occurrence, temporal trends, and half-lives of perfluoroalkyl acids (PFAAs) in occupational workers in China” (Scientific Reports, 2016).

Conditions: humans; cited from earlier work

In the case of `O=S(=O)(O)C(F)(F)C(F)(F)C(F)(F)C(F)(F)F` [PFBS, perfluorobutanesulfonate], the “Half-life based on serum concentrations” value is given as 26 days.
